From publication PMC10447463, “Data-mining unveils structure–property–activity correlation of viral infectivity enhancing self-assembling peptides” (Nature Communications, 2023)
Where two headings read alike, the source gives them in different places.

Assays:
[1] = format: physicochemical; conditions: for ThT Cat. / ThT-Fluorescence (categorical): ThT-active if fluorescence at least twice the control
Outline: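 Fibrils (1 mg/mL solution) were mixed with 50 µM ThT in PBS for 15 min at RT, and fluorescence was read at λex 440/λem 488 nm against a PBS blank, as a triplicate mean ± SD. Zeta potential came from electrophoretic mobility (Smoluchowski) after 1 d aggregation at 1 mg/mL in PBS pH 7.4, diluted into 1 mM KCl.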

[2] = Zeta-potential measurement; format: physicochemical; conditions: for Zeta pot. / mV: 1 mg/mL in PBS pH 7.4 from 10 mg/mL DMSO stock, 1 d RT, 60 µL diluted in 600 µL 1 mM KCl, Zetasizer Nano ZS, Smoluchowski, mean of triplicate; for Zeta-pot. / mV: zeta potential of peptide, Fig S15 source data
Outline: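 Samples: 1 mg/mL in PBS pH 7.4 (from DMSO), 1 d at RT, then diluted in 1 mM KCl immediately before measurement. Triplicates, two independent runs averaged.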

[3] = ThT fluorescence relative to blank, blank = 42.1851851851852
[4] = ThT fluorescence relative to blank (42.1851851851852 a.u.)
[5] = relative to blank 42.1851851851852 a.u.

| Substance | ThT Cat. / ThT-Fluorescence (categorical) [1] | Zeta pot. / mV [2] | Tht category (> 1.5 to blank = +) ([1]; category 1/0) | Zeta category ( +1 = if > 4 mV;-1 = if < -4 mV; 0 = -4mV to 4 mV) [2] | Zeta-pot. / mV [2] | also measured |
| --- | --- | --- | --- | --- | --- | --- |
| KLVFFAK [reference compound] | 0 (ThT-inactive (N-Fold <2)) | 3.2 mV |  |  |  | Zeta-Potential / mV ([2]; mean, Figure 7B): 3.23 mV |
| KVKVKVQV [JG14 / TG14] |  |  | 1 (ThT. Cat is 1, if Rel. ThT >2) | 0 (0 = -4mV to 4 mV) | -3.41 mV | Tht rel to blank (42.1851851851852) [1, 3]: 5.801; Zeta Pot. / mV [2]: -3.41 mV |
| KVKVQVV [TG2] |  |  | 0 (ThT-inactive (N-Fold <2)) | -1 (-1 = if < -4 mV) | -7.92 mV | Tht rel to blank (42.1851851851852) [1, 4]: 1.263; Tht rel to blank (42.1851851851852) [1, 3]: 1.263; Zeta Pot. / mV [2]: -7.92 mV; Zeta Pot. / mV ([2]; mean, Std in separate column): -7.92 mV |
| KVKVQVVV [TG8] |  |  | 0 (ThT-inactive (N-Fold <2)) | 0 (0 = -4mV to 4 mV) | 0.147 mV | Tht rel to blank (42.1851851851852) [1, 4]: 0.8863; Tht rel to blank (42.1851851851852) [1, 3]: 0.8863; Zeta Pot. / mV [2]: 0.147 mV; Zeta Pot. / mV ([2]; mean, Std in separate column): 0.147 mV |
| KYFIL [reference compound] | 0 (ThT-inactive (N-Fold <2)) | -7.2 mV |  |  |  | Zeta-Potential / mV ([2]; mean, Figure 7B): -7.18 mV |
| KYKYQY [KB1] |  |  | 1 (ThT. Cat is 1, if Rel. ThT >2) | -1 (-1 = if < -4 mV) | -4.2 mV | Tht rel to blank (42.1851851851852) [1, 3]: 6.106; Zeta Pot. / mV [2]: -4.2 mV |
| LASLIYR [reference compound] | 0 (ThT-inactive (N-Fold <2)) | -5.0 mV |  |  |  | Zeta-Potential / mV ([2]; mean, Figure 7B): -5.01 mV |
| MKVIFLKDVKG [reference compound] | 0 (ThT-inactive (N-Fold <2)) | 9.6 mV |  |  |  | Zeta-Potential / mV ([2]; mean, Figure 7B): 9.62 mV |
| NKGAII [reference compound] | 0 (ThT-inactive (N-Fold <2)) | -9.5 mV |  |  |  | Zeta-Potential / mV ([2]; mean, Figure 7B): -9.46 mV |
| NMWQKAKAQA [JG10] |  |  |  |  | -5.56 mV | Tht category (> 1.5 to blank = +) ([1]; FigS26): 1 (Tht category (> 1.5 to blank = +)); Zeta category ( +1 = if > 4 mV;-1 = if < -4 mV; 0 = -4mV to 4 mV) ([2]; FigS26): -1 (-1 = if < -4 mV) |
| NMWQKFKFQF [JG11] |  |  |  |  | 9.56 mV | Tht category (> 1.5 to blank = +) ([1]; FigS26): 0 (Tht category (> 1.5 to blank = +)); Zeta category ( +1 = if > 4 mV;-1 = if < -4 mV; 0 = -4mV to 4 mV) ([2]; FigS26): 1 (+1 = if > 4 mV) |
| NMWQKIKIQI [JG9] |  |  |  |  | 8.26 mV | Tht category (> 1.5 to blank = +) ([1]; FigS26): 1 (Tht category (> 1.5 to blank = +)); Zeta category ( +1 = if > 4 mV;-1 = if < -4 mV; 0 = -4mV to 4 mV) ([2]; FigS26): 1 (+1 = if > 4 mV) |
| NMWQKIKQII [JG8] |  |  |  |  | -0.213 mV | Tht category (> 1.5 to blank = +) ([1]; FigS26): 0 (Tht category (> 1.5 to blank = +)); Zeta category ( +1 = if > 4 mV;-1 = if < -4 mV; 0 = -4mV to 4 mV) ([2]; FigS26): 0 (0 = -4mV to 4 mV) |
| RATVYV [reference compound] | 0 (ThT-inactive (N-Fold <2)) | -5.2 mV |  |  |  | Zeta-Potential / mV ([2]; mean, Figure 7B): -5.17 mV |
| RFWFWFW | 1 (ThT. Cat is 1, if Rel. ThT >2) |  |  |  |  | Zeta-Potential / mV ([2]; mean, Figure 6C): 13.63 mV |
| RGDKIKIQINM [MG8a / CN17] |  |  | 1 (ThT. Cat is 1, if Rel. ThT >2) | 1 (+1 = if > 4 mV) | 16.43 mV | Tht rel to blank (42.1851851851852) [1, 4]: 9.126; Tht rel to blank (42.1851851851852) [1, 3]: 9.126; Tht rel to blank (42.1851851851852) [1, 5]: 9.126; Zeta Pot. / mV [2]: 16.43 mV; Zeta Pot. / mV ([2]; mean, Std in separate column): 16.43 mV |
| RGDKIKIQINMC [psis29] |  |  | 0 (ThT-inactive (N-Fold <2)) | 1 (+1 = if > 4 mV) | 12.2 mV | Tht rel to blank (42.1851851851852) [1, 4]: 1.396; Tht rel to blank (42.1851851851852) [1, 5]: 1.396; Zeta category ( +1 = if > 4 mV;-1 = if < -4 mV; 0 = -4mV to 4 mV) ([2]; FigS26): 1 (+1 = if > 4 mV); Zeta Pot. / mV ([2]; mean, Std in separate column): 12.2 mV |
| RGDKIKIQINMWQ [MG9a] |  |  | 0 (ThT-inactive (N-Fold <2)) | 1 (+1 = if > 4 mV) | 6.59 mV | Tht category (> 1.5 to blank = +) ([1]; FigS26): 0 (Tht category (> 1.5 to blank = +)); Tht rel to blank (42.1851851851852) [1, 4]: 1.781; Tht rel to blank (42.1851851851852) [1, 5]: 1.781; Zeta category ( +1 = if > 4 mV;-1 = if < -4 mV; 0 = -4mV to 4 mV) ([2]; category from zeta potential): 1 (+1 = if > 4 mV); Zeta Pot. / mV ([2]; mean, Std Zeta in next column): 6.59 mV; Zeta Pot. / mV ([2]; mean, Std in separate column): 6.59 mV |
| RGECKFKFQF [CN16] |  |  | 1 (ThT. Cat is 1, if Rel. ThT >2) | 1 (+1 = if > 4 mV) | 23.97 mV | Tht rel to blank (42.1851851851852) [1, 3]: 2.392; Zeta Pot. / mV [2]: 23.97 mV |
| RGEKIKIQINM [CN18] |  |  | 1 (ThT. Cat is 1, if Rel. ThT >2) | 1 (+1 = if > 4 mV) | 15.3 mV | Tht rel to blank (42.1851851851852) [1, 3]: 3.423; Zeta Pot. / mV [2]: 15.3 mV |
| RINFWFW | 1 (ThT. Cat is 1, if Rel. ThT >2) |  |  |  |  | Zeta-Potential / mV ([2]; mean, Figure 6C): 10.8 mV |
| RIRFHIW | 0 (ThT-inactive (N-Fold <2)) | 0.107 mV |  |  |  | Zeta-Potential / mV ([2]; mean, Figure 6C): 0.107 mV |
| RLRLTLC [CN13] |  |  | 0 (ThT-inactive (N-Fold <2)) | 1 (+1 = if > 4 mV) | 19.67 mV | Tht rel to blank (42.1851851851852) [1, 3]: 1.899; Zeta Pot. / mV [2]: 19.67 mV |
| RQGNINIVA [reference compound] | 1 (ThT. Cat is 1, if Rel. ThT >2) | 10.2 mV |  |  |  | Zeta-Potential / mV ([2]; mean, Figure 7B): 10.17 mV |
| RVHLGLG | 0 (ThT-inactive (N-Fold <2)) | -6.01 mV |  |  |  | Zeta-Potential / mV ([2]; mean, Figure 6C): -6.01 mV |
| RVRVTVT | 0 (ThT-inactive (N-Fold <2)) | -3.713 mV |  |  |  | Zeta-Potential / mV ([2]; mean, Figure 6C): -3.713 mV |
| VHDCVNITIK [reference compound] | 1 (ThT. Cat is 1, if Rel. ThT >2) |  |  |  |  | Zeta-Potential / mV ([2]; mean, Figure 7B): 9.27 mV |
